The subject of this series is CV-1 cells. Put plainly: MTT cytotoxicity. It is filed as cell-based. The procedure:
HFPO-DA was assessed for agonism and antagonism of transcriptional activation for estrogen (ER), androgen (AR), and glucocorticoid receptors (GR). Method details for in vitro transactivation assays for ER ([Wilson et al. 2004a]), AR ([Hartig et al. 2002], [2007]), and GR ([Conley et al. 2017]; [Medlock Kakaley et al. 2018]) have been previously reported. Briefly, for ER activity we utilized the stably transfected T47D-KBluc cell line [publicly available via American Type Culture Collection (ATCC); CRL-2865] according to protocols provided by ATCC with the modification of Dulbecco’s Modified Eagle Media (DMEM) as the cell culture media instead of Roswell Park Memorial Institute (RPMI) media. […] All assays were run in 96-well plates and luminescence was detected using a BMG Fluostar Omega luminometer (BMG Labtech) following 24-h exposure. […] Cellular cytotoxicity across the dosing range was determined for CV-1 cells utilizing the 3-(4,5-dimethylthiazol-2-yl)-2,5-diphenyltetrazolium bromide (MTT) dye ([Mosmann 1983]). HFPO-DA was analyzed using n=2–3 biological replicate assay plates (i.e., unique cell passages) with four technical replicates per treatment per plate.

The structures appear in SMILES notation.

Regarding `O=C(O)C(F)(OC(F)(F)C(F)(F)C(F)(F)F)C(F)(F)F` (stereo not shown) [HFPO-DA, Hexafluoropropylene oxide dimer acid], the cytotoxic dose came out at 300 µM.

(Values after article PMC6768323, “Adverse Maternal, Fetal, and Postnatal Effects of Hexafluoropropylene Oxide Dimer Acid (GenX) from Oral Gestational Exposure in Sprague-Dawley Rats” (Environmental Health Perspectives, 2019).)
